From patent US9790173B2, “Alpha-7 nicotinic acetylcholine receptor modulators and uses thereof-I” (MERCK SHARP & DOHME CORP., priority 2012, dated 2017)

Assays:
[1] = target: T1, rat α7 nAChRs (Rattus norvegicus, UniProt Q05941); assay: Automated planar patch clamp (Patchliner) electrophysiology, α7 nAChR PAM activity; assay type: cell-based; design: key to Type I or Type II: I: Type 1 predominately affects the peak current; Type II modulators affect the peak current and also delay the desensitization of the receptor; details: for Type I or Type II: modulator type based on the electrophysiology trace; for activation at 3 µM: GH4-C1, 3 μM compound in the presence of acetylcholine, GH4C1 cells expressing rat α7 nAChRs, peak current, read-out: Peak potentiation at 3 μM compound
T1 construct: expressed in transfected cells; host or cells: GH4C1 cells (rat pituitary line) stably expressing α7 nAChR
Description: Tested compounds were prepared by serial dilutions of 10 mM stock solution in DMSO to concentrations of the compound 1000 times higher than its final concentration. The DMSO stock solutions were then diluted 1:100 in the recording buffer bringing DMSO concentration to 1%. These intermediate solutions were further diluted 10 times with buffer to obtain final concentrations and lower DMSO concentration to 0.1%. […]
Compounds of the invention may be evaluated by electrophysiology using a Patchliner® (Nanion Technologies GmbH, Germany), an automated planar patch-clamp platform of medium throughput was used as a first step in electrophysiological assessment of α7 nAChR positive allosteric modulators (PAMs).
Briefly, intracellular (KCl—50 mM, NaCl—10 mM, KF—60 mM, EGTA—20 mM, HEPES—10 mM, pH—7.2, 285 mOsmol) and extracellular (NaCl—140 mM, KCl—4 mM, CaCl2—2 mM, MgCl2—1 mM, HEPES—10 mM, D-Glucose—5 mM, pH—7.4, 298 mOsmol) solutions were automatically pipetted onto NPC-16 chip (medium resistance ˜2.5-2.6 MΩ). Suspension of GH4C1 cells expressing rat α7 nAChRs was introduced in 4 wells of a medium resistance chip and suction was applied to attract cells in the holes. The extracellular solution was subsequently exchanged to high calcium solution (NaCl—80 mM, KCl—3 mM, CaCl2—45 mM, HEPES—10 mM, pH—7.4, 298 mOsmol) followed by gigaohm seal formation and obtaining whole-cell configuration. The rest of protocol was carried out in the high-calcium recording solution. Holding potential was −70 mV throughout the protocol. A control response to 60 or 100 μM of ACh was obtained first. Next, a cell was pre-incubated with compound of interest at 3 μM for ˜30 s after which the compound was co-applied with acetylcholine.
Amplitude of the responses was measured in HEKA Patchmaster software (HEKA Elektronik, Germany) and percentage of potentiation calculated. Recording was repeated […] a minimum of two replicates had been obtained per compound.
Compounds shown in Table 1 were evaluated by automated planar patch clamp on the Patchliner® as described in Example P2.1. […] The compounds are designated either as Type I or Type II modulators based on the electrophysiology trace. Type 1 predominately affects the peak current. Type II modulators affect the peak current and also delay the desensitization of the receptor.

T1 sequence (Q05941 23-502): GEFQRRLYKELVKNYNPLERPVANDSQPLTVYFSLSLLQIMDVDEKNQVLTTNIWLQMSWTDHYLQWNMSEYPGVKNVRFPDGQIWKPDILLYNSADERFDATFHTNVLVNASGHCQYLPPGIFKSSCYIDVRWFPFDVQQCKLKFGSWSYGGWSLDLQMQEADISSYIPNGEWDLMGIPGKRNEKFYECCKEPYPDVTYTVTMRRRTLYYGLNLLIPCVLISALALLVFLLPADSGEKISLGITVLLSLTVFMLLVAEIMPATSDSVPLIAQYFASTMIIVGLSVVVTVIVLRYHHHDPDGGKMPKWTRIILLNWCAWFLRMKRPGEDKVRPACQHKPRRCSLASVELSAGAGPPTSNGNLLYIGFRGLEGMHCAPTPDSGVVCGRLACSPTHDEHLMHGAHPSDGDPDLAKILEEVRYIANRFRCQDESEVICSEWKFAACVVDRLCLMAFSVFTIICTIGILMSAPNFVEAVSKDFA

Row | SMILES | melting point | Type I or Type II [1] | activation at 3 µM [1]
1 | COc1ccc(NC[C@@H]2[C@@H](c3ccc(S(N)(=O)=O)cc3)C23CCCC3)c(OC)n1 [Example 9, ±trans 4-(2-{[(2,6-dimethoxypyridin-3-yl)amino]methyl}spiro[2.4]hept-1-yl)benzenesulfonamide] | 56 to 58 °C | II | –
2 | Cc1ccc(Cl)cc1NC[C@@H]1[C@@H](c2ccc(S(N)(=O)=O)cc2)C1(C)C [Example 22, ±trans 4-[3-{[(5-chloro-2-methylphenyl)amino]methyl}-2,2-dimethylcyclopropyl]benzenesulfonamide] | 60 to 62 °C | II | –
3 | COc1ccc(F)cc1NC[C@@H]1[C@@H](c2ccc(S(N)(=O)=O)cc2)C1(C)C [Example 23, ±trans 4-[3-{[(5-fluoro-2-methoxyphenyl)amino]methyl}-2,2-dimethylcyclopropyl]benzenesulfonamide] | 164 to 166 °C | II | –
4 | CC1(C)[C@H](CNc2cccc(Cl)c2)[C@H]1c1ccc(S(N)(=O)=O)cc1 [Example 24, ±trans 4-[3-{[(3-chlorophenyl)amino]methyl}-2,2-dimethylcyclopropyl]benzenesulfonamide] | 120 to 122 °C | II | 901%
5 | CC1(C)[C@H](CNc2cccc(N3CCOCC3)c2)[C@H]1c1ccc(S(N)(=O)=O)cc1 [Example 26, ±trans 4-[2,2-dimethyl-3-({[3-(morpholin-4-yl)phenyl]amino}methyl)cyclopropyl]benzenesulfonamide] | – | II | 455%
6 | CCOc1ccc(Cl)cc1NC[C@@H]1[C@@H](c2ccc(S(N)(=O)=O)cc2)C1(C)C [Example 27, ±trans 4-[3-{[(5-chloro-2-ethoxyphenyl)amino]methyl}-2,2-dimethylcyclopropyl]benzenesulfonamide] | 122 to 124 °C | I | –
7 | COc1ccc(C(F)(F)F)cc1NC[C@@H]1[C@@H](c2ccc(S(N)(=O)=O)cc2)C1(C)C [Example 28, ±trans 4-[3-({[2-methoxy-5-(trifluoromethyl)phenyl]amino}methyl)-2,2-dimethylcyclopropyl]benzenesulfonamide] | 68 to 70 °C | II | –
8 | Cc1ccc(F)cc1NC[C@@H]1[C@@H](c2ccc(S(N)(=O)=O)cc2)C1(C)C [Example 29, 4-[(1R,3R)-3-{[(5-fluoro-2-methylphenyl)amino]methyl}-2,2-dimethylcyclopropyl]benzenesulfonamide] | – | I | 456%
9 | Cc1ccc(F)cc1NC[C@H]1[C@H](c2ccc(S(N)(=O)=O)cc2)C1(C)C [Example 31, 4-[(1S,3S)-3-{[(5-fluoro-2-methylphenyl)amino]methyl}-2,2-dimethylcyclopropyl]benzenesulfonamide] | – | II | –
10 | Cc1cc(F)c(F)cc1NC[C@H]1[C@H](c2ccc(S(N)(=O)=O)cc2)C1(C)C [Example 32, 4-[(1S,3S)-3-{[(4,5-difluoro-2-methylphenyl)amino]methyl}-2,2-dimethylcyclopropyl]benzenesulfonamide] | – | II | –
11 | Cc1ncccc1NC[C@@H]1[C@@H](c2ccc(S(N)(=O)=O)cc2)C1(C)C [Example 36, ±trans 4-[2,2-dimethyl-3-{[(2-methylpyridin-3-yl)amino]methyl}cyclopropyl]benzenesulfonamide] | 174 to 176 °C | II | 125%
12 | Cc1cc(F)c(Cl)cc1NC[C@@H]1[C@@H](c2ccc(S(N)(=O)=O)cc2)C1(C)C [Example 37, ±trans 4-[3-{[(3-chloro-4-fluoro-2-methylphenyl)amino]methyl}-2,2-dimethylcyclopropyl]benzenesulfonamide] | 164 to 166 °C | II | –
13 | CCc1ccc(F)cc1NC[C@H]1[C@H](c2ccc(S(N)(=O)=O)cc2)C1(C)C [Example 39, ±trans 4-[3-{[(2-ethyl-5-fluorophenyl)amino]methyl}-2,2-dimethylcyclopropyl]benzenesulfonamide] | – | II | –
14 | CC1(C)[C@@H](CNc2cc(OC(F)(F)F)ccc2F)[C@@H]1c1ccc(S(N)(=O)=O)cc1 [Example 40, ±trans 4-[3-({[2-fluoro-5-(trifluoromethoxy)phenyl]amino}methyl)-2,2-dimethylcyclopropyl]benzenesulfonamide] | – | II | 309%
15 | CC1(C)[C@@H](CNc2cc(F)ccc2OC(F)(F)F)[C@@H]1c1ccc(S(N)(=O)=O)cc1 [Example 41, ±trans 4-[3-({[5-fluoro-2-(trifluoromethoxy)phenyl]amino}methyl)-2,2-dimethylcyclopropyl]benzenesulfonamide] | – | I | –
16 | COc1ncccc1NC[C@@H]1[C@@H](c2ccc(S(N)(=O)=O)cc2)C1(C)C [Example 42, ±trans 4-(3-{[(2-methoxypyridin-3-yl)amino]methyl}-2,2-dimethylcyclopropyl)benzenesulfonamide] | 98 to 100 °C | II | –
17 | COc1ccc(Cl)cc1NC[C@@H]1[C@@H](c2ccc(-c3ccccc3O)cc2)C1(C)C [Example 43, ±trans 4′-[3-{[(5-chloro-2-methoxyphenyl)amino]methyl}-2,2-dimethylcyclopropyl]biphenyl-2-ol] | – | I | 100%
18 | CCOc1ccccc1NC[C@@H]1[C@@H](c2ccc(S(N)(=O)=O)cc2)C1(C)C [Example 44, ±trans 4-[3-{[(2-ethoxyphenyl)amino]methyl}-2,2-dimethylcyclopropyl]benzenesulfonamide] | – | I | –
19 | CC1(C)[C@H](CNc2cc(Cl)ccc2C(F)(F)F)[C@H]1c1ccc(S(N)(=O)=O)cc1 [Example 45, ±trans 4-[3-({[5-chloro-2-(trifluoromethyl)phenyl]amino}methyl)-2,2-dimethylcyclopropyl]benzenesulfonamide] | 124 to 126 °C | I | –
20 | Cc1cccnc1NC[C@@H]1[C@@H](c2ccc(S(N)(=O)=O)cc2)C12CCCC2 [Example 49, ±trans 4-[2-{[(3-methylpyridin-2-yl)amino]methyl}spiro[2.4]hept-1-yl]benzenesulfonamide] | 82 to 84 °C | II | –
21 | NS(=O)(=O)c1ccc([C@H]2C[C@@H]2CNc2cc(F)ccc2OC(F)(F)F)cc1 [Example 52, 4-[(1S,2S)-2-({[5-fluoro-2-(trifluoromethoxy)phenyl]amino}methyl)cyclopropyl]benzenesulfonamide] | 115 to 118 °C | II | –
22 | COc1ccc(Cl)cc1NC[C@@H]1[C@@H](c2ccc(S(=O)(=O)NO)cc2)C1(C)C [Example 55, ±trans 4-[3-{[(5-chloro-2-methoxyphenyl)amino]methyl}-2,2-dimethylcyclopropyl]-N-hydroxybenzenesulfonamide] | – | I | 724%
23 | COc1ccc(Cl)cc1NC[C@@H]1[C@@H](c2ccc(S(=O)(=O)NN)cc2)C1(C)C [Example 56, ±trans 4-[3-{[(5-chloro-2-methoxyphenyl)amino]methyl}-2,2-dimethylcyclopropyl]benzenesulfonohydrazide] | – | I | 131%
